The target of experiment [1] is TRAF2 and NCK-interacting protein kinase (Homo sapiens) (UniProt Q9UKE5). Briefly: Inhibition of ZC2/TNIK Lys1 labeling site in human Huh-7 cell lysate at 1 uM by KiNativ Profiling analysis relative to control. The format is subcellular.
Experiment [2] deals with T1, Serine/threonine-protein kinase D1 (Homo sapiens) (UniProt Q15139).
T1 sequence (whole entry): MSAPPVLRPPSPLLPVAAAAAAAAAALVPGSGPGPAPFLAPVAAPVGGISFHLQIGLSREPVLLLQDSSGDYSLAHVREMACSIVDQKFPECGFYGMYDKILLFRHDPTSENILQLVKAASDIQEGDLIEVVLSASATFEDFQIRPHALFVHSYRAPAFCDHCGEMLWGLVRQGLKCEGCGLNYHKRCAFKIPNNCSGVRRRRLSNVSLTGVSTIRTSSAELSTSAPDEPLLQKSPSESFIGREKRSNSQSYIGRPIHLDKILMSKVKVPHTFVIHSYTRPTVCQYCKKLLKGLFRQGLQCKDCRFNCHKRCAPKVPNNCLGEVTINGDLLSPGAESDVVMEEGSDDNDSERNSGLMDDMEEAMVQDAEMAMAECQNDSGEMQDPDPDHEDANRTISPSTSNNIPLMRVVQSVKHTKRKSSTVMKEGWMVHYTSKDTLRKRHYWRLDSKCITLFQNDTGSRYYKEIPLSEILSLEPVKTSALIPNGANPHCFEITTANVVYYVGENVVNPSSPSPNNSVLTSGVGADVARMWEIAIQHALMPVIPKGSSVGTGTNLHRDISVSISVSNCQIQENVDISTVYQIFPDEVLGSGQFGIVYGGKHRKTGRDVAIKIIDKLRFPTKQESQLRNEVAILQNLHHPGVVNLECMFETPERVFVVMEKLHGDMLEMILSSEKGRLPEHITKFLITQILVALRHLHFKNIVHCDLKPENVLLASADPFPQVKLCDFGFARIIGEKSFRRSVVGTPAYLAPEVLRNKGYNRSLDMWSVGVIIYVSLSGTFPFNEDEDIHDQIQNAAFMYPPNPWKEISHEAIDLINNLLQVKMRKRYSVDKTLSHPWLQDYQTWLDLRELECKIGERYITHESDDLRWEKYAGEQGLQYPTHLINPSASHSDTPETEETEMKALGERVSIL
The experiment is described as follows: Inhibition of PKD1 Lys2 labeling site in human Huh-7 cell lysate at 1 uM by KiNativ Profiling analysis relative to control. The format is subcellular.

Experiment [3] addresses Cyclin-dependent kinase 5 (Homo sapiens) (UniProt Q00535). Briefly: Inhibition of CDK5 Lys1 labeling site in human A-375 cells at 0.5 uM by KiNativ Profiling analysis relative to control. It counts as cell-based.
The target of experiment [4] is Cytoplasmic tyrosine-protein kinase BMX (Homo sapiens) (UniProt P51813). The experiment is described as follows: Inhibition of BMX (unknown origin) at 10 uM by Ambit Kinomescan binding assay relative to control.
Experiment [5] has as its system Mast/stem cell growth factor receptor Kit (Homo sapiens), P10721 [V559D]. Briefly: Inhibition of KIT V559D mutant (unknown origin) at 10 uM by Ambit Kinomescan binding assay relative to control.
The target in experiment [6] is MAP kinase-activated protein kinase 2 (Homo sapiens) (UniProt P49137). Briefly: Inhibition of MAPKAPK2 (unknown origin) at 10 uM by Ambit Kinomescan binding assay.
For experiment [7], the target named is Serine/threonine-protein kinase RIO1 (Homo sapiens) (UniProt Q9BRS2). Briefly: Inhibition of RIOK1 (unknown origin) at 10 uM by Ambit Kinomescan binding assay.
The target in experiment [8] is T2, NUAK family SNF1-like kinase 2 (Homo sapiens) (UniProt Q9H093).
T2 sequence (whole entry): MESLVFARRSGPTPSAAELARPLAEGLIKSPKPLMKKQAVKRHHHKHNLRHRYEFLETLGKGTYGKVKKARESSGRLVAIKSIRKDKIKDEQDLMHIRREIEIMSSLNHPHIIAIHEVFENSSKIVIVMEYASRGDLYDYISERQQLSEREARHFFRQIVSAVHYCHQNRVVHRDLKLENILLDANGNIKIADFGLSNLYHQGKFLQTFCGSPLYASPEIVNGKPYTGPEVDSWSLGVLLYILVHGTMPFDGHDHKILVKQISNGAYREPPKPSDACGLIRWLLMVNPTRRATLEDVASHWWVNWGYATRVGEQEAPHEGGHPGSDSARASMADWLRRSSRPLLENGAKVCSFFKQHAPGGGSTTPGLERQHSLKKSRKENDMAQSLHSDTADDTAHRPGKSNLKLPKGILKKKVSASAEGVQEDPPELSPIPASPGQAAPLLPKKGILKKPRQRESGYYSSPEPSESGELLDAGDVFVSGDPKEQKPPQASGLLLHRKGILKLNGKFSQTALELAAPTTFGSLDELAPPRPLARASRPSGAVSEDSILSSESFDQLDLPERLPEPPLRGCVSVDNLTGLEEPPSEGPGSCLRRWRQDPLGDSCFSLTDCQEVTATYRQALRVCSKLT
Briefly: Inhibition of SNARK (unknown origin) at 10 uM by Ambit Kinomescan binding assay.

The target of experiment [9] is T3, Mitogen-activated protein kinase kinase kinase 2 (Homo sapiens) (UniProt Q9Y2U5).
T3 sequence (whole entry): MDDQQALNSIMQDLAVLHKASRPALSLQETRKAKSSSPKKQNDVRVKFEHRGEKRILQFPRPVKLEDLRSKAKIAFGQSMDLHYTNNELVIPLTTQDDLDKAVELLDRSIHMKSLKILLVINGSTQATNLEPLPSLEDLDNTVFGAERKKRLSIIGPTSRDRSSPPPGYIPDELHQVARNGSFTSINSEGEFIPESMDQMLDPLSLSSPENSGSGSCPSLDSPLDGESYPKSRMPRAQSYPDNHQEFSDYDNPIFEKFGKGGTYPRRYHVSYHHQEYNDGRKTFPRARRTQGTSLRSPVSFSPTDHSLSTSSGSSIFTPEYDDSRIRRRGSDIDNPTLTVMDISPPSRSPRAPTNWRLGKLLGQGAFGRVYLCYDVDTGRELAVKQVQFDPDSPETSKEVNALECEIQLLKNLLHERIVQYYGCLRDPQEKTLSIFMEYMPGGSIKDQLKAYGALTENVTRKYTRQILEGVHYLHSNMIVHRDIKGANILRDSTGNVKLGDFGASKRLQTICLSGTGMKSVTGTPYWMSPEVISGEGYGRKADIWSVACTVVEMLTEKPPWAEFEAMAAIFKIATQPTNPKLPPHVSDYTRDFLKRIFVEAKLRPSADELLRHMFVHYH
Briefly: Inhibition of MAP3K2 Lys1 labeling site harbouring ELAVKQVQFDPDSPETSKEVNALECEIQLLK in human A-375 cells at 0.5 uM by KiNativ Profiling analysis relative to control. It counts as cell-based.

Experiment [10] deals with Cyclin-dependent kinase 2 (Homo sapiens) (UniProt P24941). Briefly: Inhibition of CDK2 K2 labeling site in human Huh-7 cells at 10 uM by KiNativ Profiling analysis relative to control. The format is cell-based.
Experiment [11] is described as follows: Inhibition of […] K2 labeling site in human Huh-7 cells at 10 uM by KiNativ Profiling analysis relative to control. The note with it: condition cancer.

The structures appear in SMILES notation. The source made the active and inactive calls. The calls are words filed in the database; no cut-off is given here.

MAP kinase-activated protein kinase 2 (Homo sapiens), sequence (P49137 whole entry, looked up): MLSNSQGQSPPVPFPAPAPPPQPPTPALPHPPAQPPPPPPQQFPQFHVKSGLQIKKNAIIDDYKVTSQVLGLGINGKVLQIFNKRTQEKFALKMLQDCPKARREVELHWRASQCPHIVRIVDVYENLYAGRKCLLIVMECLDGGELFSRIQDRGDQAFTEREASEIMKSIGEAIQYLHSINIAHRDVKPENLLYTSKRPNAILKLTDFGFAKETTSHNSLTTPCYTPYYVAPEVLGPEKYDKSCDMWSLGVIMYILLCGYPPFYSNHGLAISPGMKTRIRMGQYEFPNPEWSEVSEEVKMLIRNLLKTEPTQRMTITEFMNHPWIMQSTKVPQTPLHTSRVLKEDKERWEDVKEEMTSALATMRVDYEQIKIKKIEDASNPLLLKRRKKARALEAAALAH
Mast/stem cell growth factor receptor Kit (Homo sapiens), P10721 [V559D], sequence (P10721 whole entry V559D): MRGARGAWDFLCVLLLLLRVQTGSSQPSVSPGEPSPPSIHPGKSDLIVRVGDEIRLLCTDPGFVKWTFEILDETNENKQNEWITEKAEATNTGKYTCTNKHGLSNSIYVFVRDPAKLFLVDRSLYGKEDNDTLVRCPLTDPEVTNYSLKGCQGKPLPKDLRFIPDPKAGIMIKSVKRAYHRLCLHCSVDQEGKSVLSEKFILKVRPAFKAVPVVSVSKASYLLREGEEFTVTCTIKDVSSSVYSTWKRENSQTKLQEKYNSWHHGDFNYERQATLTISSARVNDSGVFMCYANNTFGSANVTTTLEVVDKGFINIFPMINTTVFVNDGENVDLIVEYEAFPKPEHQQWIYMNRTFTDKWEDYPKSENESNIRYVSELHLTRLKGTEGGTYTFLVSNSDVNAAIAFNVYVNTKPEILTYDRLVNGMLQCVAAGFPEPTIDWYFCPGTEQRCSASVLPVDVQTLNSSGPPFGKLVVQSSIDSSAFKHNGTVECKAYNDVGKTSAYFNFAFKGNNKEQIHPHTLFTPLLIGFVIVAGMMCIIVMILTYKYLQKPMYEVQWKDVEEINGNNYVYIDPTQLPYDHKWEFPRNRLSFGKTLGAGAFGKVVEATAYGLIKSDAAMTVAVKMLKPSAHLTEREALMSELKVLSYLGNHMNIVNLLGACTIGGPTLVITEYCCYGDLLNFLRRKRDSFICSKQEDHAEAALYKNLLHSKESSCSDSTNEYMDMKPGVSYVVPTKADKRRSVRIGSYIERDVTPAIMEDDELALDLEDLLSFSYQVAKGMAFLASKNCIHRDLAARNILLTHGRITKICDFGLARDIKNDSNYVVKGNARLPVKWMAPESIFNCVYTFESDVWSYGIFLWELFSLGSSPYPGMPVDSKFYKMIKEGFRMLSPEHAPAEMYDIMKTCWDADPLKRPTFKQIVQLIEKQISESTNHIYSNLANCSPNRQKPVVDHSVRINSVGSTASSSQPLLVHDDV
TRAF2 and NCK-interacting protein kinase (Homo sapiens), sequence (Q9UKE5 whole entry, looked up): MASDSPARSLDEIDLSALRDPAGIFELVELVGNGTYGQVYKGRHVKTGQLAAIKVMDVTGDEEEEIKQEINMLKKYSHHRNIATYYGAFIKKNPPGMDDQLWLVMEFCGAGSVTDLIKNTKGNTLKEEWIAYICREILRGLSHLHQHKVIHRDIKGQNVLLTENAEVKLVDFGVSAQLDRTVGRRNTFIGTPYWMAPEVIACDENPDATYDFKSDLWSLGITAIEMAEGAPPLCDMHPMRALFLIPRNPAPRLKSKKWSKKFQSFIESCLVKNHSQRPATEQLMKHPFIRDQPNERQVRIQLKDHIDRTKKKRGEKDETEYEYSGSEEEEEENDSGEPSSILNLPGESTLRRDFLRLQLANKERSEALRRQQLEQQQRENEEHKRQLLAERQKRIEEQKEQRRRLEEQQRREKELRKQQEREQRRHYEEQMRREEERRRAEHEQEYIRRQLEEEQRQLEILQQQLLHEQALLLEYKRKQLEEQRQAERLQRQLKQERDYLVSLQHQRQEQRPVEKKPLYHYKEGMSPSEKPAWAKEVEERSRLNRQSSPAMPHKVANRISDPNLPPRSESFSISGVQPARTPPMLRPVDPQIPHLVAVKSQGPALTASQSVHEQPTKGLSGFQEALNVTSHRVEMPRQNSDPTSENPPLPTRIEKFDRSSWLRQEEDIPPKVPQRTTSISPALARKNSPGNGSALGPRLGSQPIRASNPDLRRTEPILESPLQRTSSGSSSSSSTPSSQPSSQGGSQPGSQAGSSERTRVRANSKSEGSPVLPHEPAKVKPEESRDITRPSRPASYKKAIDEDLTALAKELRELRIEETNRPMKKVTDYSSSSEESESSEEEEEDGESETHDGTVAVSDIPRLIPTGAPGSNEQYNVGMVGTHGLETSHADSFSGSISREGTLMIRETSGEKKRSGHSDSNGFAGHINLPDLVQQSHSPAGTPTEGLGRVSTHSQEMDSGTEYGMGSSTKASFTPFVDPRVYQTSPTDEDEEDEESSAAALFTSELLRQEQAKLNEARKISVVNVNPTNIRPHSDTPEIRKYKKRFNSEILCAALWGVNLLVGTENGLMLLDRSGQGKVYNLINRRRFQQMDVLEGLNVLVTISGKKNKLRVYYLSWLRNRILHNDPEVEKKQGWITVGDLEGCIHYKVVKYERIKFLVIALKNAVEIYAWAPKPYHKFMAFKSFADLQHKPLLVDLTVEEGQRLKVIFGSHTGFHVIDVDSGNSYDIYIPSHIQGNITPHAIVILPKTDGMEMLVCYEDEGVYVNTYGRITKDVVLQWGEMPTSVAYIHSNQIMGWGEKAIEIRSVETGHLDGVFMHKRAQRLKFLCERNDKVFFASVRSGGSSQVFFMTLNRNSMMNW
Cytoplasmic tyrosine-protein kinase BMX (Homo sapiens), sequence (P51813 whole entry): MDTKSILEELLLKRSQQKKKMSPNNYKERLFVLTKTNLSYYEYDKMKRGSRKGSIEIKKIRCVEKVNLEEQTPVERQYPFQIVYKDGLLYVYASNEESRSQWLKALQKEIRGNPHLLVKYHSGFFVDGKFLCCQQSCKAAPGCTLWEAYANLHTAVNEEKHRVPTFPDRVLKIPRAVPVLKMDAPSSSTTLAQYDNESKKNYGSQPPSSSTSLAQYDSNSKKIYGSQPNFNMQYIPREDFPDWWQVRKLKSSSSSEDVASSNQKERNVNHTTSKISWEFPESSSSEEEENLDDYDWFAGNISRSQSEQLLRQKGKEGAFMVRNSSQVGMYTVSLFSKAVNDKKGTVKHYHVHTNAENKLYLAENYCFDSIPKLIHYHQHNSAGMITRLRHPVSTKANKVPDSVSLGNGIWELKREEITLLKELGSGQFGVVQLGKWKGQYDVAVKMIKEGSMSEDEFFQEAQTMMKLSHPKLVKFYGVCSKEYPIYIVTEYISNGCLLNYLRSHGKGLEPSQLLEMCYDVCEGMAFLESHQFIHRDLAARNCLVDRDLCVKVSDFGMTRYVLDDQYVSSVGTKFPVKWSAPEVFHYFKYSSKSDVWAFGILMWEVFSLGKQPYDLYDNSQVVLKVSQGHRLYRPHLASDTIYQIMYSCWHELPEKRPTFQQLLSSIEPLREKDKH
Serine/threonine-protein kinase RIO1 (Homo sapiens), sequence (Q9BRS2 whole entry): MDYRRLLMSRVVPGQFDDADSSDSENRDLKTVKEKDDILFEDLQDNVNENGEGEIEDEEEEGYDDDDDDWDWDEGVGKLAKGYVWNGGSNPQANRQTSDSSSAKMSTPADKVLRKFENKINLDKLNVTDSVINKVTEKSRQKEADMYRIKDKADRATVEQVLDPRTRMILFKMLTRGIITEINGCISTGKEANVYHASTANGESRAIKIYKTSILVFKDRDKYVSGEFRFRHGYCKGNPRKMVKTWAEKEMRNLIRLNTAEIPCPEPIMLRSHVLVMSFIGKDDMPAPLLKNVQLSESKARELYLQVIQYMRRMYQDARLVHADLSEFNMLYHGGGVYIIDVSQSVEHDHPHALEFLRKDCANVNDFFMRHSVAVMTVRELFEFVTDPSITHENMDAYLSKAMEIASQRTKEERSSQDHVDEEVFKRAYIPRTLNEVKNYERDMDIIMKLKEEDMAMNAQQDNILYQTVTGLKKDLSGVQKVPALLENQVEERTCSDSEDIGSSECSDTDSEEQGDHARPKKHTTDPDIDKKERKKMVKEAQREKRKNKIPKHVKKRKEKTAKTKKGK
Cyclin-dependent kinase 5 (Homo sapiens), sequence (Q00535 whole entry, looked up): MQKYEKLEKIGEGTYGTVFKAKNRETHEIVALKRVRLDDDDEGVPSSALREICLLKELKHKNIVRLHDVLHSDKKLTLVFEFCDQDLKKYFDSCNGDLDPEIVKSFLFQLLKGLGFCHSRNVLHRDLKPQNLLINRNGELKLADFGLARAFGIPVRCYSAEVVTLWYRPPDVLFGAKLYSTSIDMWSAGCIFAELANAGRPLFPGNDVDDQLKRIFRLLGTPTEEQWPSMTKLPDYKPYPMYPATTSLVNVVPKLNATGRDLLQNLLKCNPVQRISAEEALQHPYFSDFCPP

Consider `CNc1cc(Oc2cc(C(=O)Nc3cc(N4CCN(C)CC4)cc(C(F)(F)F)c3)ccc2C)ncn1`, for which the inhibition (usually the change of the read-out against control, counted positive when it falls) is 11.9% in [1] and -3.5% in experiment [2].
On to `CCN1CCN(Cc2ccc(NC(=O)c3ccc(C)c(/C=C/c4cnc5[nH]ccc5c4OC)c3)cc2C(F)(F)F)CC1`, for which the inhibition in experiment [3] was -4.1%.
In the case of `CCN1CCN(Cc2ccc(NC(=O)c3ccc(C)c(Oc4ccnc5[nH]ccc45)c3)cc2C(F)(F)F)CC1`, the inhibition in [4] was determined as 2.4%; in experiment [5] it was 0%; in experiment [9] it was 16.9%; in experiment [10], 16.2%. Further, the inhibition entry in experiment [6], in experiment [7] and in experiment [8] was “inactive” throughout. Moreover, the inhibition at 10 µM in [11] is -6.7%.

The values are drawn from ChEMBL document CHEMBL5696442, “Discovery of type II inhibitors of TGFβ-activated kinase 1 (TAK1) and mitogen-activated protein kinase kinase kinase kinase 2 (MAP4K2)” (J Med Chem, 2015).
